In DBAASP:
≈ marks a conversion by molar mass, not a printed value. Where “and” joins values, the source holds several entries; their conditions need not be identical. Identical values can stand only once. Blank lines part the entries; values can stand above or below the compound they belong to.

Legend:
Test in all cases: ≥ marks a high value that may be exact or a test limit, other limits are often not marked, values filed in µg/mL are converted to µM
[1] = tested on: Serratia marcescens
[2] = tested on: Candida albicans SC5314
[3] = tested on: Candida albicans ATCC 10261
[4] = tested on: Yersinia enterocolitica O:9 96-C
[5] = tested on: Pseudomonas aeruginosa ATCC 27853
[6] = tested on: Klebsiella pneumoniae
[7] = tested on: Escherichia coli CIB 84492
[8] = tested on: Candida albicans ATCC 90028
[9] = tested on: Escherichia coli ATCC 25922
[10] = tested on: Staphylococcus aureus ATCC 25923
[11] = tested on: Staphylococcus aureus CIB 85462
[12] = tested on: Staphylococcus aureus NCTC 8325
[13] = tested on: Candida albicans CIB 45437
[14] = tested on: Escherichia coli O157:H7
[15] = tested on: Staphylococcus aureus 1056
[16] = tested on: Escherichia coli DH5alpha
[17] = tested on: Candida glabrata ATCC 2001
[18] = tested on: Escherichia coli D31 CGSC 5165
[19] = tested on: Bacillus thuringiensis serovar israelensis
[20] = tested on: Staphylococcus aureus
[21] = tested on: Bordetella bronchiseptica CUN 11844-99
[22] = tested on: Brucella abortus 9.49 (per-)
[23] = tested on: Staphylococcus aureus ΔmprFpRBsyn
[24] = tested on: Pseudomonas aeruginosa CUN 4158-02
[25] = tested on: Yersinia pestis KIM pYV
[26] = tested on: Acinetobacter baumannii ATCC 19606
[27] = tested on: Staphylococcus aureus ΔmprF
[28] = tested on: Staphylococcus aureus ATCC 43300
[29] = tested on: Escherichia coli ATCC 23716
[30] = tested on: Staphylococcus aureus SA113
[31] = tested on: Ureaplasma urealyticum strain 2
[32] = tested on: Ureaplasma urealyticum strain 1
[33] = tested on: Candida tropicalis IFM 46862
[34] = tested on: Candida glabrata IFM 46861
[35] = tested on: Candida krusei IFN 5462

MIC [1]: 25 µM (≈ 57.8 µg/mL)
MIC [2]: 6.3 µM and 3.1 µM
MIC [3]: 6.3 µM and 3.1 µM
MIC [4]: 3.1 µM and 1.6 µM
MIC [5]: 12.5 µM and 6.3 µM
MIC [6]: > 25 µM and 12.5 µM
Compound: CC[C@H](C)[C@H](NC(=O)[C@H](C)NC(=O)[C@@H](NC(=O)[C@H](Cc1cnc[nH]1)NC(=O)[C@@H]1CCCN1C(=O)[C@H](CC(C)C)NC(=O)[C@@H](NC(=O)[C@H](C)NC(=O)[C@H](CCCN=C(N)N)NC(=O)CNC(=O)[C@@H](NC(=O)[C@H](CCCN=C(N)N)NC(=O)[C@H](C)NC(=O)[C@@H](NC(=O)[C@@H](NC(=O)[C@H](CCCN=C(N)N)NC(=O)[C@@H](NC(=O)[C@H](C)NC(=O)[C@H](CO)NC(=O)[C@H](CCCN=C(N)N)NC(=O)[C@H](CC(C)C)NC(=O)[C@H](C)N)C(C)C)[C@@H](C)O)C(C)C)C(C)C)C(C)C)C(C)C)C(N)=O [ALRSAVRTVARVGRAVLPHVAI]

MIC [16]: ≥ 40 µM
MIC [17]: ≥ 122 µM
MIC [18]: 10 µM (≈ 32.1 µg/mL)
MIC [19]: 24.5 µM (≈ 78.6 µg/mL)
Compound: CC[C@H](C)[C@H](NC(=O)[C@H](Cc1ccccc1)NC(=O)[C@H](CCCCN)NC(=O)[C@H](C)NC(=O)[C@@H](NC(=O)[C@H](CO)NC(=O)[C@H](CCCCN)NC(=O)[C@H](CCSC)NC(=O)[C@@H](NC(=O)[C@H](CCCCN)NC(=O)[C@H](Cc1ccccc1)NC(=O)[C@H](Cc1c[nH]c2ccccc12)NC(=O)[C@H](CCCCN)NC(=O)[C@@H](NC(=O)[C@@H](N)CCCCN)[C@@H](C)CC)[C@@H](C)O)[C@@H](C)CC)C(=O)N[C@@H](C)C(=O)N[C@@H](CCCCN)C(=O)N[C@@H](CCC(=O)O)C(=O)N[C@@H](CCC(N)=O)C(=O)N[C@@H](CCSC)C(=O)N[C@@H](CCCCN)C(=O)N[C@@H](CCCCN)C(=O)N[C@@H](Cc1cnc[nH]1)C(=O)N[C@@H](CC(C)C)C(=O)NCC(=O)NCC(=O)N[C@@H](CCC(=O)O)C(=O)O [KIKWFKTMKSIAKFIAKEQMKKHLGGE]

MIC [31]: ≥ 46 µM
MIC [32]: ≥ 46 µM
Compound: CC[C@H](C)[C@H](NC(=O)[C@H](CCSC)NC(=O)[C@H](CC(=O)O)NC(=O)[C@@H](NC(=O)[C@H](CCSC)NC(=O)[C@H](Cc1ccccc1)NC(=O)[C@H](CC(N)=O)NC(=O)[C@H](Cc1ccccc1)NC(=O)CNC(=O)[C@H](CCCCN)NC(=O)[C@H](CC(N)=O)NC(=O)[C@H](CO)NC(=O)[C@@H](N)CCCN=C(N)N)C(C)C)C(=O)N[C@@H](CCC(N)=O)C(=O)N[C@@H](C)C(=O)N[C@@H](CC(C)C)C(=O)N[C@@H](CO)C(=O)N[C@@H](CCCCN)C(N)=O [RSNKGFNFMVDMIQALSK]

More lines, now with the values behind:

Compound: CC(C)C[C@H](NC(=O)CN)C(=O)N[C@@H](CC(C)C)C(=O)N[C@@H](CC(=O)O)C(=O)N[C@H](C(=O)N[C@@H](Cc1ccccc1)C(=O)N[C@@H](CCCCN)C(=O)N[C@@H](CC(N)=O)C(=O)N[C@@H](CC(C)C)C(=O)N[C@@H](C)C(=O)N[C@@H](CC(C)C)C(=O)N[C@@H](CC(N)=O)C(=O)N[C@@H](C)C(=O)N[C@@H](C)C(=O)N[C@@H](CCCCN)C(=O)N[C@@H](CO)C(=O)N[C@@H](C)C(=O)NCC(=O)N[C@H](C(=O)N[C@@H](CO)C(=O)N[C@H](C(=O)N[C@@H](CC(C)C)C(=O)N[C@@H](CC(N)=O)C(=O)N[C@@H](CO)C(=O)N[C@@H](CC(C)C)C(=O)N[C@@H](CO)C(=O)N[C@H]1CSSC[C@@H](C(=O)O)NC(=O)[C@H]([C@@H](C)O)NC(=O)[C@H](CCCCN)NC(=O)[C@H](CO)NC(=O)[C@H](CC(C)C)NC(=O)[C@H](CCCCN)NC1=O)C(C)C)C(C)C)[C@@H](C)O [GLLDTFKNLALNAAKSAGVSVLNSLSCKLSKTC]
MIC [7]: ≥ 38 µM
MIC [8]: ≥ 100 µM
MIC [9]: 12.5 µM (≈ 42.1 µg/mL)
MIC [10]: 19 µM (≈ 64 µg/mL)
MIC [11]: 19 µM (≈ 64 µg/mL)
MIC [12]: ≥ 50 µM
MIC [13]: 19 µM (≈ 64 µg/mL)

Compound: CC[C@H](C)[C@H](N)C(=O)N1CCC[C@H]1C(=O)N[C@@H](CCCN=C(N)N)C(=O)N1CCC[C@H]1C(=O)N[C@@H](CC(C)C)C(=O)N[C@@H](CC(=O)O)C(=O)N1CCC[C@H]1C(=O)N[C@H]1CSSC[C@@H]2NC(=O)[C@H](CO)NC(=O)[C@H](CCCCN)NC(=O)CNC(=O)[C@H](CC(N)=O)NC(=O)[C@H](CCCN=C(N)N)NC(=O)[C@@H]3CSSC[C@H](NC(=O)[C@H](CCCN=C(N)N)NC(=O)CNC(=O)[C@H](CC(N)=O)NC(=O)[C@H](CCC(N)=O)NC(=O)[C@H](C)NC(=O)[C@H]([C@@H](C)CC)NC1=O)C(=O)N[C@@H](Cc1ccccc1)C(=O)N[C@@H]([C@@H](C)O)C(=O)NCC(=O)N[C@@H]([C@@H](C)CC)C(=O)N[C@@H](CSSC[C@@H](C(=O)N[C@@H](CCCN=C(N)N)C(=O)N[C@@H](CCCN=C(N)N)C(=O)N[C@@H](CCCN=C(N)N)C(=O)O)NC2=O)C(=O)N[C@@H](CCCN=C(N)N)C(=O)N[C@@H](Cc1ccc(O)cc1)C(=O)N1CCC[C@H]1C(=O)N[C@@H](Cc1ccc(O)cc1)C(=O)N[C@@H](Cc1ccccc1)C(=O)N[C@@H](Cc1c[nH]c2ccccc12)C(=O)N[C@@H]([C@@H](C)CC)C(=O)NCC(=O)N[C@@H]([C@@H](C)O)C(=O)N3 [IPRPLDPCIAQNGRCFTGICRYPYFWIGTCRNGKSCCRRR]
MIC [14]: 0.515 µM (≈ 2.41 µg/mL)
MIC [15]: 0.594 µM (≈ 2.78 µg/mL)

Compound: CC[C@H](C)[C@H](NC(=O)[C@H](CCCN=C(N)N)NC(=O)[C@H](CCCCN)NC(=O)[C@H](CO)NC(=O)[C@@H](NC(=O)[C@@H](N)CCCCN)[C@@H](C)CC)C(=O)N[C@@H](CC(C)C)C(=O)N[C@H](C(=O)NCC(=O)N[C@@H](CCCCN)C(=O)N[C@@H](CCCCN)C(N)=O)[C@@H](C)O [KISKRILTGKK]
MIC [20]: > 201 µM
MIC [21]: ≥ 201 µM
MIC [22]: ≥ 201 µM
MIC [9]: > 201 µM
MIC [23]: ≥ 201 µM
MIC [24]: ≥ 201 µM
MIC [25]: ≥ 201 µM
MIC [26]: > 201 µM
MIC [27]: ≥ 201 µM
MIC [28]: > 201 µM
MIC [29]: ≥ 201 µM
MIC [30]: ≥ 201 µM

Compound: CC(C)[C@H](N)C(=O)N[C@@H](CO)C(=O)N[C@@H](CCCN=C(N)N)C(=O)N[C@@H](CCCN=C(N)N)C(=O)N[C@@H](CCCN=C(N)N)C(=O)N[C@@H](CCCN=C(N)N)C(=O)N[C@@H](CCCN=C(N)N)C(=O)N[C@@H](CCCN=C(N)N)C(=O)NCC(=O)NCC(=O)N[C@@H](CCCN=C(N)N)C(=O)N[C@@H](CCCN=C(N)N)C(=O)N[C@@H](CCCN=C(N)N)C(=O)N[C@@H](CCCN=C(N)N)C(=O)O [VSRRRRRRGGRRRR]
MIC [33]: 2.5 µM (≈ 4.7 µg/mL)
MIC [2]: 1.6 µM and 2.5 µM
MIC [34]: 2.5 µM (≈ 4.7 µg/mL)
MIC [35]: 2.5 µM (≈ 4.7 µg/mL)
